What is called AC50 is the concentration giving half of the maximal activity seen. The low end stands for activity at low concentration, the high end for activity only at high concentration.

From US8889667B2 (Agios Pharmaceuticals, Inc, priority 2010, dated 2014) come the findings set out here.

PKM2, sequence (P14618 whole entry): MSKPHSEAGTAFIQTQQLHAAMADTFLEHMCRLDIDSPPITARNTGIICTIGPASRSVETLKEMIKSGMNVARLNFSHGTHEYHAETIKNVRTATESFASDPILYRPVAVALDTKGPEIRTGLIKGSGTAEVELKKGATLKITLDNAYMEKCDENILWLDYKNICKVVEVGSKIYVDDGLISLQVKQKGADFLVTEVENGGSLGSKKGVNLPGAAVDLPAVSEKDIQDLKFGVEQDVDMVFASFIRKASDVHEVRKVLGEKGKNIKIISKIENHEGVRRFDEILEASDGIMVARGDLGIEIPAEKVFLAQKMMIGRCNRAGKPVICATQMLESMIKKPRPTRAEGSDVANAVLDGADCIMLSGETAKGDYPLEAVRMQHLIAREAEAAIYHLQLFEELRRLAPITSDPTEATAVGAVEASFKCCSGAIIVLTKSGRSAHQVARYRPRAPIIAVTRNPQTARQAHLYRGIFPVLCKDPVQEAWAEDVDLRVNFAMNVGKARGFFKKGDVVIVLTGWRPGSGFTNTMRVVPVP

One test addresses PKM2 (Homo sapiens, UniProt P14618). As to the kind of experiment: PKM2 Assay (activation, LDH-coupled, absorbance at 340 nm). Type of test: biochemical. The settings on record: Table 4. The procedure, abridged: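 Read-out was the 340 nm NADH absorbance change at 25 °C in an LDH-coupled system (PEP 0.15 mM, NADH 180 μM, ADP 0.7 mM to initiate) in 50 mM Tris pH 7.5, 100 mM KCl, 5 mM MgCl2. PKM2 at 50 ng/well was first preincubated with compound for 30 min at 4 °C. Activation given as AC50.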
For the compound `C[C@@H]1CN(Cc2ccc(F)cc2)CCN1C(=O)c1ccc(NS(=O)(=O)c2cccc3cccnc23)cc1` [Compound 131, (R)—N-(4-(4-(4-fluorobenzyl)-2-methylpiperazine-1-carbonyl)phenyl)quinoline-8-sulfonamide], the AC50 was below 0.1 µM. On the same count and under the same terms, the figure for `C[C@H]1CN(CC2CCCC2)CCN1C(=O)c1ccc(NS(=O)(=O)c2cccc3cccnc23)cc1Cl` [Compound 186, (S)—N-(3-chloro-4-(4-(cyclopentylmethyl)-2-methylpiperazine-1-carbonyl)phenyl)quinoline-8-sulfonamide] is below 0.1 µM.

Still in this test, the particulars now being: Table 5.
The compound `O=C(c1ccc(NS(=O)(=O)c2cccc3cccnc23)cc1Cl)N1CCN(CC2CC2)CC1` [Compound 427, N-(3-chloro-4-(4-(cyclopropylmethyl)piperazine-1-carbonyl)phenyl)quinoline-8-sulfonamide] showed an AC50 below 0.1 µM. Still for that read-out and setting: the figure for `O=C(c1ccc(NS(=O)(=O)c2cccc3cccnc23)cc1)N1CCN(C(=O)c2cnns2)CC1` [Compound 313, N-(4-(4-(1,2,3-thiadiazole-5-carbonyl)piperazine-1-carbonyl)phenyl)quinoline-8-sulfonamide] is below 0.1 µM; for `O=C(c1ccc(NS(=O)(=O)c2cccc3cccnc23)c(OC(F)(F)F)c1)N1CCN(CC2CC2)CC1` [Compound 301, N-(4-(4-(cyclopropylmethyl)piperazine-1-carbonyl)-2-(trifluoromethoxy)phenyl)quinoline-8-sulfonamide] it is 0.1 to 0.5 µM. In turn, `O=C(c1ccc(NS(=O)(=O)c2cccc3cccnc23)cc1)N1CCN(Cc2c[nH]cn2)CC1` [Compound 386, N-(4-(4-((1H-imidazol-4-yl)methyl)piperazine-1-carbonyl)phenyl)quinoline-8-sulfonamide] gave an AC50 of 0.1 to 0.5 µM.

`O=C(c1ccc(NS(=O)(=O)c2cccc3cccnc23)cc1)N1CCN(C2(c3ccccc3)CC2)CC1` [Compound 330, N-(4-(4-(1-phenylcyclopropyl)piperazine-1-carbonyl)phenyl)quinoline-8-sulfonamide]: the AC50 is below 0.1 µM. Compound `CC(C)(C1CC1)N1CCN(C(=O)c2ccc(NS(=O)(=O)c3cccc4cccnc34)cc2)CC1` [Compound 438, N-(4-(4-(2-cyclopropylpropan-2-yl)piperazine-1-carbonyl)phenyl)quinoline-8-sulfonamide] came in with an AC50 below 0.1 µM.

On to `O=C(c1ccc(NS(=O)(=O)c2cccc3cccnc23)cc1)N1CCN(C[C@H]2CCOC2)CC1` [Compound 444, (R)— and (S)—N-(4-(4-((tetrahydrofuran-3-yl)methyl)piperazine-1-carbonyl)phenyl)quinoline-8-sulfonamide], for which the AC50 was below 0.1 µM. Same read-out and setting: the figure for `O=C(c1ccc(NS(=O)(=O)c2cccc3cccnc23)c(OC(F)(F)F)c1)N1CCN(Cc2ncccc2C(F)(F)F)CC1` [Compound 309, N-(2-(trifluoromethoxy)-4-(4-((3-(trifluoromethyl)pyridin-2-yl)methyl)piperazine-1-carbonyl)phenyl)quinoline-8-sulfonamide] is 1 to 20 µM. With `O=C(c1ccc(NS(=O)(=O)c2cccc3cccnc23)cc1Cl)N1CCN(Cc2cc(F)cc(F)c2)CC1` [Compound 426, N-(3-chloro-4-(4-(3,5-difluorobenzyl)piperazine-1-carbonyl)phenyl)quinoline-8-sulfonamide], the AC50 was below 0.1 µM. Same read-out and setting: the figure for `[2H]C([2H])(c1cc(F)cc(F)c1)N1CCN(C(=O)c2ccc(NS(=O)(=O)c3cccc4cccnc34)cc2)CC1` [Compound 449, N-(4-(4-(3,5-difluorobenzyl)piperazine-1-carbonyl)phenyl)quinoline-8-sulfonamide-(D2)] is below 0.1 µM; for `O=C(c1ccc(NS(=O)(=O)c2cccc3cccnc23)c(OC(F)(F)F)c1)N1CCN(Cc2ccn[nH]2)CC1` [Compound 382, N-(4-(4-((1H-pyrazol-5-yl)methyl)piperazine-1-carbonyl)-2-(trifluoromethoxy)phenyl)quinoline-8-sulfonamide] it is 0.1 to 0.5 µM.
